US20250296955A1, “PIN1 TARGETING COMPOUNDS AND DEGRADERS AND METHODS THEREOF” (The Regents of the University of California, priority 2024, published 2025)
Where a SMILES comes first, the peptide text is derived from it. [ ]: non-standard residue; d: D form. The star is where a group is joined. Trp(5-OMe) = COc1ccc2[nH]cc(C[C@H](N)C(=O)O)c2c1; Pip = O=C(O)[C@@H]1CCCCN1; ClAc = O=C(CCl)*

Columns and labels:
Pin1 [1] = target: T1, Pin1 (Homo sapiens, UniProt Q13526); test: Denaturation thermal shift assay (SYPRO Orange); assay type: binding; set-up: human Pin1 (residues 1-163); made in house; host or cells: E. coli BL21 (DE3) gold pLysS; settings: Table 3; single transition; ± SE of four replicates
Description: (§1) Important to the success of structure activity relations studies, robust biochemical, biophysical, and cell-based assays were implemented that enabled rapid and iterative evaluations of test Pin1 targeting agents. First, the DELFIA (Dissociation-enhanced lanthanide fluorescent immunoassay) assay platform was used to derive a robust heterogeneous assay to monitor the ability of test agents to displace the binding between Pin1 and the D-Peptide (Table 1), which was obtained in a biotinylated form (FIG. 10). […] Second, for an orthogonal biophysical assay denaturation thermal shift measurements were used. Pin1 was incubated with vehicle control (buffer with 1% DMSO), or test agents at protein: ligand ratio of 1:2 (20 μM protein-40 μM compound) for 10 min at 10° C. in the presence of the fluorescent dye SYPRO Orange. The samples were gradually exposed to increasing temperature (linear gradient from 10° C. to 95° C.), causing the protein to unfold. This unfolding allowed the fluorescent dye to bind to the protein's exposed hydrophobic residues, resulting in an increase in fluorescence. The thermal shift assay measures the protein's melting temperature (Tm), which is the temperature at which the protein denatures by 50%. Ligands can affect a protein target to thermal denaturation, which could manifest in a positive or negative shift in the protein denaturation temperature (ΔTm) (Bai N, Roder H, Dickson A, & Karanicolas J (2019) Scientific Reports 9; and Kranz J K & Schalk-Hihi C (2011) Fragment-Based Drug Design: Tools, Practical Approaches, and Examples 493:277-298). Using these two assays, a series of commercially available Pin1 inhibitors were profiled (Table 1). The non-covalent agent D-peptide resulted only moderately active, with an IC50 value of ˜3 μM that closely resembled the dissociation constant for this agent determined via isothermal titration calorimetry, and the ˜ 3 μM IC50 value as reported by a fluorescence polarization assay (Pinch B J, et al. (2020) Nat Chem Biol 16(9):979-987). […] (Table 1) was observed.
Thermal shift assays for Pin1 alone and in the presence of the inhibitors were obtained with a BioRad CFX Connect Real-Time PCR Detection System. Each data point was collected in quadruplicate. Each sample was prepared using buffer 50 mM Phosphate pH 7.5, 150 mM NaCl, 1% DMSO. Protein: ligand ratio used was 1:2 (20 μM protein-40 μM compound), and SYPRO Orange was used. Incubation of the Pin1 protein with the compounds was performed at 10° C. for 10 min. Samples were then heated from 10 to 95° C. with heating increments of 0.05° C., over 30 min. Fluorescence intensity was measured within the excitation/emission ranges 470-505/540-700 nm.

Pin1 [2] = target: T1, Pin1; test: Pin1 degradation in MIA PaCa-2 cells (western blot); assay type: cell-based; settings: after 24 h (FIG. 14C)
Method: BxPC3, MIA PaCa-2, PANC-1, MDA-MB-231, and PC3 were obtained from the American Type Culture Collection (ATCC) and A549 NucLight Red cells were purchased from Essen Bioscience. BxPC3 and PC3 cells were cultured in RPMI (Corning) while PANC-1 cells were cultured in DMEM (Corning). MIA PaCa-2 cells were also cultured in DMEM, but with the addition of 2.5% horse serum. A549 NucLight cells were cultured in a Ham's F-12 nutriend mixture with GlutaMAX-1 (Gibco). All of the culture media were supplemented with 10% FBS. MDA-MB-231 cells were nuclear-labeled red (MDA-MB-231 NucLight Red) with the IncuCyte NucLight lentivirus reagent (Essen Bioscience) according to the manufacturer's protocol and were cultured in DMEM supplemented with 10% FBS and 1 μg/mL puromycin. Cells were all maintained at 37° C. in a humidified incubator with 5% CO2.
At the end of the treatments, cells were lysed with a lysis buffer containing 20 mM Tris, pH 7.4, 120 mM NaCl, 1% Triton X-100, 0.5% sodium deoxycholate, 0.1% SDS, 1% IGEPAL, 5 mM EDTA, protease inhibitor cocktail and PhosSTOP (Sigma-Aldrich). Lysates were then centrifuged at 16,000×g for 20 min at 4° C. and supernatants were collected. Protein concentrations were determined using the Pierce BCA Protein Assay Kit (ThermoFisher Scientific) according to the manufacturer's instruction. […]

Pin1 [3] = target: T1, Pin1; test: DELFIA displacement assay (displacement of biotinylated D-peptide from 6His-Pin1); assay type: binding; set-up: human Pin1 (residues 1-163); made in house; host or cells: E. coli BL21 (DE3) gold pLysS; settings: Table 3; ± SD from duplicates
Description: as §1
For the reported covalent agents such as sulfopin (Dubiella C, et al. (2021) Nat Chem Biol 17(9):954-963), BJP-07-017-3 (Pinch B J, et al. (2020) Nat Chem Biol 16(9):979-987), or KPT-6566 (Campaner E, et al. (2017) Nat Commun 8:15772), a 6-h pre-incubation period was included in the DELFIA assay to allow the covalent reaction to take place. For those agents, IC50 values that fell in the low nanomolar range were observed, consistent with what was reported previously for those compounds. […] To make those determinations in a broader panel of cancer cell lines three pancreatic cancer cell lines, BxPC3, MIA-PaCa-2, and PANC-1, the breast cancer cell line MDA-MB-231, the prostate cancer cell line PC3, and the non-small cell lung cancer cell line A549 were chosen. Each cell line represents various states of KRAS activating mutations (for example BxPC3 is wt-KRAS, while MIAPaCa2 carries the KRAS(G12C) mutation, and the PANC-1 the KRAS(G12D) (Miquel M, Zhang S, & Pilarsky C (2021) Front Cell Dev Biol 9:748631), A549 is KRAS(G12S) (Wang H, et al. (2019) EBioMedicine 49:106-117), MDA-MB-231 is KRAS(G13D) (Kim R K, et al. (2015) Exp Mol Med 47(1):e137), PC3 is wt-KRAS (Bouali S, et al. (2009) Oncol Rep 21(3):731-735). Pin1 protein levels in these cell lines were established using a specific Pin1 antibody in western blot analyses (FIG. 1A). The data confirmed that all these selected human cancer cell lines expressed a significant level of Pin1 (FIG. 1A).
Each well of 96-well streptavidin-coated plates (PerkinElmer) was incubated with 100 μL of 200 nM biotinylated D-peptide for 2 h and washed 3 times with a wash solution (PerkinElmer). Subsequently, a mixture containing Pin1, and a serial dilution of the test compounds were pre-incubated for 6 h. Eu-N1-labeled anti-6x-His antibody (PerkinElmer, 1:2000) was then added to this mixture and further incubated in the biotinylated D-peptide-bound plates for another 2 h. […]

T1 sequence (Q13526 whole entry, the tested form may be a part): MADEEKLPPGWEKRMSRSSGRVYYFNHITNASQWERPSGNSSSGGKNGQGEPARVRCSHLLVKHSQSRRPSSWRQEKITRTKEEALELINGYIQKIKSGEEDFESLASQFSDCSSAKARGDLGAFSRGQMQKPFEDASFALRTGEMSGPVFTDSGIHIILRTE

COc1ccc2[nH]cc(C[C@H](NC(=O)[C@@H]3CCCCN3C(=O)[C@H](Cc3ccccc3)NC(=O)CCl)C(N)=O)c2c1 [158F10] (ClAc-Phe-[Pip]-[Trp(5-OMe)]-NH2)
ΔTm (° C.) (Pin1 [1]): −10.16 ± 0.07 °C
degradation of Pin1 (western blot) (Pin1 [2]): degradation of Pin1
IC50 (Pin1 [3]): 126 ± 5 nM
